Each block holds one compound with its values, some of them ahead of it.
Assays:
[1] = logP determination by HPLC on reversed-phase column (C18), EEC Directive 79/831 Annex V.A8; type: physicochemical; conditions: reversed-phase C18, acetonitrile/water with formic acid
[2] = system: two-spotted spider mite (Tetranychus urticae); assay: Tetranychus urticae spray test; OP-resistant (bean plants); type: in vivo; conditions: 20 ppm, after 7 days
[3] = system: adult cat fleas (Ctenocephalides felis); assay: Ctenocephalides felis in-vitro contact test, adult cat flea; type: in vivo; conditions: 5 μg/cm^2 (=500 g/ha), after 48 hours
Method: Ctenocephalides felis—In-Vitro Contact Tests Adult Cat Flea
(§1) 9 mg compound is solved in 1 ml acetone and diluted with acetone to the desired concentration. 250 μl of the test solution is filled in 25 ml glass test tubes and homogeneously distributed on the inner walls by rotation and tilting on a shaking device (2 h at 30 rpm). With a compound concentration of 900 ppm, an inner surface of 44.7 cm^2 and a homogeneous distribution, a dose of 5 μg/cm^2 is achieved.
(§2) After the solvent has evaporated, each test tube is filled with 5-10 adult cat fleas (Ctenocephalides felis), closed with a perforated lid and incubated in a lying position at room temperature and relative humidity. After 48 hours efficacy is determined. The fleas are patted on the ground of the tubes and are incubated on a heating plate at 45-50° C. for at most 5 minutes. Immotile or uncoordinated moving fleas, which are not able to escape the heat by climbing upwards, are marked as dead or moribund.
An efficacy of 100% means all fleas are dead or moribund; 0% means no fleas are dead or moribund.

[4] = system: adult house flies (Musca domestica); assay: Musca domestica test (MUSCDO); type: in vivo; conditions: 100 ppm, after 2 days
Excerpt: Musca domestica—Test (MUSCDO)
(§3) Solvent: dimethyl sulfoxide
10 adult house flies (Musca domestica) are transferred into a container, containing a sponge soaked with a mixture of sugar solution and compound solution of the desired concentration.

[5] = system: adult engorged female ticks (Boophilus microplus); assay: Boophilus microplus injection test (BOOPMI Inj); type: in vivo; conditions: 20 μg/animal, egg deposition after 7 days
Method: Boophilus microplus—Injectiontest (BOOPMI Inj)
as §3
Five adult engorged female ticks (Boophilus microplus) are injected with 1 μl compound solution into the abdomen. The ticks are transferred into replica plates and incubated in a climate chamber.
(§4) After 7 days egg deposition of fertile eggs is monitored. Eggs where fertility is not visible are stored in a climate chamber till hatching after about 42 days. An efficacy of 100% means all eggs are infertile; 0% means all eggs are fertile.

[6] = system: adult brown dog ticks (Rhipicephalus sanguineus); assay: Rhipicephalus sanguineus in-vitro contact test with adult brown dog ticks; type: in vivo; conditions: 5 μg/cm^2 (=500 g/ha), after 48 hours
Method: Rhipicephalus sanguineus—In-Vitro Contact Tests with Adult Brown Doe Ticks
as §1
as §2, with “brown dog ticks (Rhipicephalus sanguineus),” for “cat fleas (Ctenocephalides felis),”, “ticks” for “fleas”, “ticks,” for “fleas,”
An efficacy of 100% means all ticks are dead or moribund; 0% means no ticks are dead or moribund.

[7] = system: fall armyworm larvae (Spodoptera frugiperda); assay: Spodoptera frugiperda spray test (maize leaf sections); type: in vivo; conditions: 100 g/ha, after 7 days
Excerpt: Spodoptera frugiperda—Spray Test
(§5) Solvent: 78.0 parts by weight acetone
(§6) • 1.5 parts by weight dimethylformamide Emulsifier: alkylarylpolyglycol ether
Maize (Zea mays) leaf sections are sprayed with a preparation of the active ingredient of the desired concentration. Once dry, the leaf sections are infested with fall armyworm larvae (Spodoptera frugiperda).

[8] = system: cattle ticks (Boophilus microplus) strane Parhurst, SP-resistant; assay: Boophilus microplus dip test (BOOPMI Dip); type: in vivo; conditions: 100 ppm, egg deposition after 7 days
Excerpt: Boophilus microplus—Diptest (BOOPMI Dip)
Test animal: cattle ticks (Boophilus microplus) strane Parhurst, SP-resistant
as §3
This compound solution is pipetted into tubes. 8-10 engorged, adult, female cattle ticks (Boophilus microplus) are placed in perforated tubes. These tubes are immersed in the aqueous compound solution until the ticks are completely moistened. After the liquid has drained off, the ticks are transferred to a filter paper in a plastic tray and stored in a climate chamber.
as §4

[9] = system: Tick nymphs (Amblyomma hebraeum); assay: Amblyomma hebraeum test (AMBYHE); type: in vivo; conditions: 100 ppm, after 42 days
Method: Amblyomma hebraeum—Test (AMBYHE)
as §3
Tick nymphs (Amblyomma hebraeum) are placed in perforated plastic beakers and immersed in the aqueous compound solution for one minute. Ticks are transferred to a filter paper in a petridish and incubated in a climate chamber.

[10] = system: green peach aphid (Myzus persicae); assay: Myzus persicae spray test (Chinese cabbage leaf disks); type: in vivo; conditions: 20 g/ha, after 6 days
Method: Myzus persicae—Spray Test
as §5, §6
Chinese cabbage (Brassica pekinensis) leaf disks infected with all instars of the green peach aphid (Myzus persicae), are sprayed with a preparation of the active ingredient of the desired concentration.
After 6 days mortality in % is determined.

SMILES: Cn1nc(C(F)(F)F)c([S+](C)[O-])c1-n1cc(-c2ccc(Cl)c(C(=O)NC3(C#N)CC3)c2)cn1 (centres unmarked) [Example I-01]
logP [1]: 2.16
mortality in % [2]: 100%

SMILES: Cn1nc(C(F)(F)C(F)(F)F)c([S+](C)[O-])c1-n1cc(-c2ccc(Cl)c(C(=O)NC3(C#N)CC3)c2)cn1 (racemic) [Example I-03]
logP [1]: 2.61
efficacy (fleas dead or moribund) [3]: 100%
mortality in % [4]: 100%
efficacy (infertile eggs) [5]: 100%

SMILES: Cc1ccc(-c2cnn(-c3c([S+](C)[O-])c(C(F)(F)C(F)(F)F)nn3C)c2)cc1C(=O)NC1(C#N)CC1 (centres unmarked) [Example I-24]
logP [1]: 2.57
efficacy (infertile eggs) [5]: 100%

SMILES: Cn1nc(C(F)(F)C(F)(F)F)c(S(C)(=O)=O)c1-n1cc(-c2ccc(Cl)c(C(=O)NC3(C#N)CC3)c2)cn1 [Example I-04]
logP [1]: 2.77
mortality in % [4]: 100%
efficacy (infertile eggs) [5]: 100%

SMILES: CSc1c(C(F)(F)C(F)(F)F)nn(C)c1-n1cc(-c2cnc(Cl)c(C(=O)N(C)C3CC3)c2)cn1 [Example I-19]
logP [1]: 3.67

SMILES: Cn1nc(C(F)(F)C(F)(F)F)c([S+](C)[O-])c1-n1cc(-c2ccc(Cl)c(C(=O)NC3(C#N)CC3)c2)cn1 (single isomer, unassigned) [Example I-21]
logP [1]: 2.59

SMILES: CSc1c(C(F)(F)C(F)(F)F)nn(C)c1-n1cc(-c2ccc(Cl)c(C(=O)NC3CC3)c2)cn1 [Example I-12]
logP [1]: 3.65
efficacy (ticks dead or moribund) [6]: 100%
efficacy (fleas dead or moribund) [3]: 100%
mortality in % [7]: 100%
mortality in % [4]: 100%
efficacy (infertile eggs) [8]: 100%
efficacy (infertile eggs) [5]: 100%

SMILES: CSc1c(C(F)(F)C(F)(F)F)nn(C)c1-n1cc(-c2ccc(C)c(C(=O)NC3(C#N)CC3)c2)cn1 [Example I-16]
logP [1]: 3.55

SMILES: Cc1ncc(-c2cnn(-c3c([S+](C)[O-])c(C(F)(F)C(F)(F)F)nn3C)c2)cc1C(=O)NC1(C#N)CC1 (centres unmarked) [Example I-10]
logP [1]: 1.99

SMILES: CSc1c(C(F)(F)C(F)(F)F)nn(C)c1-n1cc(-c2ccc(C)c(C(=O)NC3CC3)c2)cn1 [Example I-17]
logP [1]: 3.64

SMILES: CCSc1c(C(F)(F)C(F)(F)F)nn(C)c1-n1cc(-c2ccc(Cl)c(C(=O)NC3(C#N)CC3)c2)cn1 [Example I-15]
logP [1]: 3.76
efficacy (ticks dead or moribund) [6]: 100%
efficacy (fleas dead or moribund) [3]: 100%
mortality in % [7]: 100%
mortality in % [4]: 90%
mortality in % [9]: 100%
efficacy (infertile eggs) [8]: 100%
efficacy (infertile eggs) [5]: 100%

SMILES: Cc1ccc(-c2cnn(-c3c(S(C)(=O)=O)c(C(F)(F)C(F)(F)F)nn3C)c2)cc1C(=O)NC1(C#N)CC1 [Example I-23]
logP [1]: 2.79
mortality in % [10]: 100%
efficacy (infertile eggs) [5]: 100%

chromatographic logP ([1]; reversed-phase C18 HPLC column): 2.68
SMILES: Cn1nc(C(F)(F)C(F)(F)F)c(N)c1-n1cc(Br)cn1 [Example 14, 4-bromo-2′-methyl-5′-(pentafluoroethyl)-2′H-1,3′-bipyrazol-4′-amine]

— patent US9936699B2, “Halogen-substituted compounds” (BAYER CROPSCIENCE AKTIENGESELLSCHAFT, priority 2014, dated 2018)
